Data on 14 molecules can be found in patent publication US20250101062A1, “ANTIMICROBIAL PEPTIDES” (Board of Regents of the University of Nebraska, priority 2023, published 2025).

≈ marks a conversion by molar mass, not a printed value. Read-outs that look alike come from different tables or passages of the source. Where a SMILES comes first, the peptide text is derived from it. Where no end group is shown, it is not given here.

One experiment relates to S. aureus USA300 LAC. The experiment is described as follows: microbe, parasite or virus in culture. The class given is cell-based, Staphylococcus aureus. The protocol:
(§1) The following resistant bacterial clinical strains were used in this study: S. aureus USA300 LAC, S. epidermidis 1457, E. coli E423-17, P. aeruginosa E411-17, K. pneumoniae E406-17, and A. baumannii B28-16. While the S. aureus USA300 strain is methicillin-resistant, most of the Gram-negative bacteria contain extended-spectrum beta-lactamase and are resistant to beta-lactam antibiotics. Peptide activity against bacteria was tested using an established lab protocol (Mishra, et al. (2017) Acta Biomater., 49:316-328). In brief, a peptide concentration gradient with twofold dilution was made in the 96-well polystyrene microplate at 10 μL per well. Bacteria were grown to the exponential phase (i.e., optical density at 600 nm≈0.5), diluted to ˜10^5 CFU/mL in different percentages of MHB, TSB, or LB, and partitioned into the 96-well microplate at 90 μL per well. […] They were diluted with autoclaved distilled water to obtain different percentages. The microplates were incubated at 37° C. overnight and read on a ChroMate™ 4300 microplate reader at 600 nm (GMI, Ramsey, MN). The peptide concentration in the wells without bacterial growth is the MIC. As is the convention, MIC values were represented as ranges.
(§2) For pH effects on peptide activity, the pH of the medium was adjusted to a targeted pH for the autoclave and then remeasured at room temperature. For salt and serum effects on peptide activity, stock NaCl solution or human serum was added to the media.
(§3) Peptide activity against bacteria were tested using the CLSI standard procedure with minor modifications (Clinical and Laboratory Standards Institute (2018) Performance standards for antimicrobial susceptibility testing, 9th ed.; Mishra, et al. (2019) Proc. Natl. Acad. Sci., 116(27):13517-13522). In brief, a peptide concentration gradient with twofold dilution was made in the 96-well polystyrene microplate at 10 μL per well. Bacteria were grown to the exponential phase (i.e., optical density at 600 nm≈0.5), diluted to ˜10^5 CFU/mL in MHB, and partitioned into the 96-well microplate at 90 μL per well. The microplates were incubated at 37° C. overnight and read on a ChroMate® 4300 Microplate Reader at 600 nm (GMI, Ramsey, MN). The peptide concentration in the wells without bacterial growth is the minimal inhibitory concentration (MIC). As the convention, MIC values were represented as ranges.
(§4) For pH effects on peptide activity, the pH of the medium was adjusted to a targeted pH for autoclave and then remeasured at room temperature. For salt and serum effects on peptide activity, stock NaCl solution or human serum were added to the media.

For another experiment, the system named is E. coli E423-17. The class given is cell-based, Escherichia coli. As for the experimental part: as §1, §2, §3, §4
Another experiment deals with E. coli. The settings on record: data from the antimicrobial peptide database; cited from earlier work.
A further experiment has as its system K. pneumoniae E406-17. In kind it is cell-based, Klebsiella pneumoniae. The protocol: as §1, §3
For another experiment, the system named is A. baumannii B28-16. The class given is cell-based, Acinetobacter baumannii. Conditions: B28-16. The protocol: as §1, §3
The next experiment relates to P. aeruginosa E411-17. The experiment is described as follows: microbe, parasite or virus in culture. In kind it is cell-based, Pseudomonas aeruginosa. Conditions: for MIC: read-out: Antimicrobial activity (MIC). As for the experimental part:
as §1, §2, §3, §4

The next experiment has as its system S. epidermidis 1457. The experiment is described as follows: microbe, parasite or virus in culture. In kind it is cell-based, Staphylococcus epidermidis. Conditions: read-out: Antimicrobial activity (MIC) S. epidermidis 1457. As for the experimental part: as §1, §3
Where [1] appears, read: USA300, read-out: Antimicrobial activity (MIC).

Regarding “RKSKEKIGK-NH2 (C-terminus assumed) [RK-9]”, the MIC in the experiment with S. aureus USA300 LAC (setting [1]) is more than 64 µM. Further, the “Antimicrobial activity (MIC)” value with E. coli E423-17 (E423-17) was more than 64 µM.

Regarding “FKRIVQRIKDFLRNLV [FK-16, reference compound]”, the “Antimicrobial activity (MIC)” value in the experiment with S. aureus USA300 LAC (MHB 12.5%), in the experiment with S. aureus USA300 LAC (MHB 100%), in the experiment on E. coli E423-17 (MHB 12.5%) and in the experiment on E. coli E423-17 (MHB 100%) was “active” throughout.

Turning to “GWLKKIGKKIERVGQHTRDATIQGLGIAQQAANVAATAR (Drosophila melanogaster) [Sarcotoxin IA]”, the “MIC against E. coli” value in the experiment on E. coli was 0.2 to 6.3 µg/mL.

On to “KEKIGKEFKR-NH2 (C-terminus assumed) [KE-10]”, for which the MIC with S. aureus USA300 LAC (setting [1]) was more than 64 µM. Besides, the “Antimicrobial activity (MIC)” value in the experiment with E. coli E423-17 (E423-17) was more than 64 µM.

“RWKFGKKLERMGKRIFKATEKGLPVATGVAALARG (Tunga penetrans) [Tpen-cec]”: the “MIC against E. coli” value with E. coli is 8 µg/mL.

For the molecule “SWLSKTAKKLENSAKKRIAEGIAIAIQGGPR (listed as Anisakis sp.) [Anisaxin-3]”, the “MIC against E. coli” value in the experiment with E. coli is 0.5 to 1.0 µM.

As to KRIVQRIK-NH2 [W538], the “Antimicrobial activity (MIC)” value was more than 64 µM in the experiment with S. aureus USA300 LAC (MHB 12.5%), more than 64 µM with E. coli E423-17 (E423-17) and 8 µM in the experiment with E. coli E423-17 (MHB 12.5%). In addition, the “Activity (MIC) S. aureus” value with S. aureus USA300 LAC (USA300) was more than 32 µM. For the same molecule, the MIC with S. aureus USA300 LAC (setting [1]) was more than 64 µM. The “Activity (MIC) E.coli” value in the experiment on E. coli E423-17 (E423-17) was more than 32 µM. For the same molecule, the “Activity (MIC) K. pneumoniae” value in the experiment with K. pneumoniae E406-17 was more than 32 µM. Besides, the “Activity (MIC) A. baumannii” value with A. baumannii B28-16 was more than 32 µM. Also, in the experiment on P. aeruginosa E411-17 (E411-17), the “Activity (MIC) P. aeruginosa” value is more than 32 µM.

Regarding “KRIVQRIKDFLR-NH2 (C-terminus assumed) [KR-12]”, the “Antimicrobial activity (MIC)” value was “active” in the experiment with S. aureus USA300 LAC (MHB 12.5%), “did not display any activity” in the experiment with S. aureus USA300 LAC (MHB 100%), 4 to 8 µM in the experiment on S. aureus USA300 LAC (USA300) and “active” with E. coli E423-17 (MHB 100%). Further, in the experiment with S. aureus USA300 LAC (setting [1]), the MIC is given as 4 µM.

Turning to KRWWQWWK-NH2 [W542], the “Activity (MIC) K. pneumoniae” value with K. pneumoniae E406-17 was more than 32 µM. Also, the “Activity (MIC) P. aeruginosa” value in the experiment with P. aeruginosa E411-17 (E411-17) fell in the range of 4 to 8 µM.

Regarding KRIWQRIK-NH2 [W539], in the experiment with S. aureus USA300 LAC (USA300), the “Activity (MIC) S. aureus” value is more than 32 µM. Also, the “Activity (MIC) E.coli” value in the experiment with E. coli E423-17 (E423-17) is more than 32 µM. The “Activity (MIC) K. pneumoniae” value with K. pneumoniae E406-17 is more than 32 µM. Moreover, the “Activity (MIC) A. baumannii” value in the experiment on A. baumannii B28-16 is more than 32 µM. Moreover, in the experiment on P. aeruginosa E411-17 (E411-17), the “Activity (MIC) P. aeruginosa” value is more than 32 µM.

With “LLGDFFRKSK-NH2 (C-terminus assumed) [LL-10]”, the MIC with S. aureus USA300 LAC (setting [1]) is listed as more than 64 µM.

For the molecule “LRNLVPRTES-NH2 (C-terminus assumed) [LR-10]”, the MIC in the experiment on S. aureus USA300 LAC (setting [1]) is listed as more than 64 µM. For the same molecule, in the experiment on E. coli E423-17 (E423-17), the “Antimicrobial activity (MIC)” value is more than 64 µM.

Turning to KRWWQRWK-NH2 [W541], the “Activity (MIC) S. aureus” value in the experiment on S. aureus USA300 LAC (USA300) was more than 32 µM. Moreover, the “Activity (MIC) E.coli” value with E. coli E423-17 (KR-8 series, Table 3) was 8 µM. Also, the “Activity (MIC) K. pneumoniae” value in the experiment on K. pneumoniae E406-17 was more than 32 µM. Further, the “Activity (MIC) A. baumannii” value with A. baumannii B28-16 is more than 32 µM. Also, the “Activity (MIC) P. aeruginosa” value in the experiment with P. aeruginosa E411-17 (E411-17) was more than 32 µM.

With `CCCCCCCCCC(=O)N[C@H](CCCCN)C(=O)N[C@H](CCCNC(=N)N)C(=O)N[C@@H](C(=O)N[C@@H](C(=O)N[C@H](CCC(N)=O)C(=O)N[C@H](CCCNC(=N)N)C(=O)N[C@@H](C(=O)N[C@H](CCCCN)C(N)=O)[C@H](C)CC)C(C)C)[C@H](C)CC` [C10-KR8, reference compound] (HELM PEPTIDE1{[CCCCCCCCCC(=O)[*:2]].[dK].[dR].[dI].[dV].[dQ].[dR].[dI].[dK].[am]}$$$$V2.0; N-terminus and C-terminus assumed), the MIC in the experiment on S. aureus USA300 LAC (USA300, pH 6.21, read-out: Antimicrobial activity (MIC)) is 8 µM (≈ 9.55 µg/mL); in the experiment with S. aureus USA300 LAC (USA300, pH 7.22, read-out: Antimicrobial activity (MIC)) it was 4 µM (≈ 4.77 µg/mL); with S. aureus USA300 LAC (USA300, pH 8.13, read-out: Antimicrobial activity (MIC)) it was 2 µM (≈ 2.39 µg/mL); in the experiment with S. aureus USA300 LAC (setting [1]), 4 µM (≈ 4.77 µg/mL); in the experiment on S. aureus USA300 LAC (USA300, read-out: Antimicrobial activity (MIC) S. aureus USA300) it was 4 µM (≈ 4.77 µg/mL); with S. epidermidis 1457 it was 4 µM (≈ 4.77 µg/mL). The MIC in the experiment on P. aeruginosa E411-17 (E411-17, pH 6.21) worked out at 16 µM (≈ 19.1 µg/mL); in the experiment with P. aeruginosa E411-17 (E411-17, pH 8.13), 4 µM (≈ 4.77 µg/mL); with P. aeruginosa E411-17 (E411-17) it was 16 µM (≈ 19.1 µg/mL). The “Antimicrobial activity (MIC) E. coli E423-17” value in the experiment on E. coli E423-17 (E423-17) came to 8 µM. The “Antimicrobial activity (MIC) A. baumannii B28-16” value in the experiment with A. baumannii B28-16 is 4 µM. Further, the “Antimicrobial activity (MIC) P. aeruginosa E411-17” value in the experiment on P. aeruginosa E411-17 (E411-17) amounted to 8 µM. Also, the “Antimicrobial activity (MIC)” value with P. aeruginosa E411-17 (E411-17, pH 7.22) lay within 4 to 8 µM.
